Measured values reported in patent US20110217240A1, “IMAGING NEUROLEPTIC COMPOUNDS” (priority 2008, published 2011).

System: apomorphine-induced dopaminergic neurotransmission
Experiment: BOLD fMRI of neuronal/glial activity in conscious rats pre-treated with an antipsychotic and challenged with apomorphine
Type: in vivo, rat
Conditions: for neuronal/glial activity in the anterior thalamic nuclei / neuronal/glial activity in the pituitary gland: antipsychotic pre-treatment i.p. (chlorpromazine, clozapine, olanzapine 5 mg/kg; haloperidol 1 mg/kg)
Text: To image the brain activity of live rats (Charles River Laboratories, Wilmington, Mass.), the rats were anesthetized with 2-3% isoflurane (Abbott Laboratories, North Chicago, Ill.). Nine (9) rats were used for each experimental condition. A topical anesthetic of 10% lidocaine gel was applied to the skin and soft tissue around the ear canals and over the bridge of the nose. A plastic semi-circular headpiece with blunted ear supports that fit into the ear canals was positioned over the ears. The head was placed into a cylindrical head holder with the rat's canines secured over a bite bar and ears positioned inside the head holder with adjustable screws fitted into lateral sleeves. An adjustable, receive-only surface coil built into the head holder was pressed firmly on the head and locked into place. The body of the rat was placed into a body restrainer. The body restrainer “floats” down the center of the chassis connecting at the front and rear end-plates and buffered by rubber gaskets. The head piece locks into a mounting post on the front of the chassis. This design isolates all of the body movements from the head restrainer and minimizes motion artifact. Once the rat was positioned in the body holder, a transmit-only volume coil was slid over the head restrainer and locked into position.
When the rats were fully conscious, the restraining unit was placed into a black opaque tube mock scanner with a tape-recording of an MRI pulse sequence. This acclimation protocol lasted for 60 minutes in order to simulate the bore of the magnet and the imaging protocol. This procedure was repeated every other day for four days.
Experiments were conducted in a Bruker Biospec 4.7-T/40-cm horizontal magnet (Oxford Instrument, Oxford, U.K.) equipped with a Biospec Bruker console (Bruker, Billerica, Mass., U.S.A.) and a 20 G/cm magnetic field gradient insert (internal diameter=12 cm) capable of a 120 μs rise time (Bruker). Radiofrequency (RF) signals were sent and received with the dual coil electronics built into the animal restrainer (Ludwig et al., 2004, J. Neurosci. Methods 132(2):125-35). The volume coil for transmitting RF signal features an 8-element microstrip line configuration in conjunction with an outer copper shield. The arch-shaped geometry of the receiving surface coil provides excellent coverage and high signal-to-noise. To prevent mutual coil interference, the volume and surface coils were actively tuned and detuned.
Functional images were acquired using a multi-slice fast spin echo sequence. A single data acquisition included twelve (12), 1.2 mm slices collected in 6 seconds (field of view (FOV) 3.0 cm; data matrix 64×64; repetition time (TR) 1.43 sec, effective echo time (Eff TE) 53.3 msec, echo time (TE) 7 msec; rapid acquisition with relaxation enhancement (RARE) factor 16, number of excitations (NEX) 1). This sequence was repeated 100 times in a 10 minute imaging session, consisting of 5 minutes of baseline data followed by 5 minutes of stimulation data. At the beginning of each imaging session, a high resolution anatomical data set was collected using a RARE pulse sequence (12 slice; 1.2 mm; FOV 3.0 cm; 256×256; TR 2.1 sec; TE 12.4 msec; NEX 6; 7 minute acquisition time).
For each subject, rigid body motion in x-, y- and z-direction was computed with Stimulate software (Strupp, 1996, NeuroImage 3:S607) using center of intensity method. […] A conservative criteria of 120 μm standard deviation of motion in any direction was set as acceptance criteria.

[1] = apomorphine 20 μg/10 μl ICV, BOLD fMRI, conscious rat
[2] = then apomorphine 20 μg/10 μl ICV, BOLD fMRI, conscious rat
[3] = pre-treatment 5 mg/kg i.p., then apomorphine 20 μg/10 μl ICV, BOLD fMRI, conscious rat

Compound	activation of the anterior thalamic nuclei by apomorphine [1]	activation of the dorsal striatum by apomorphine [1]	activation of the pituitary gland by apomorphine [1]	activation of the mesocorticolimbic dopamine system (reward pathway) by apomorphine (apomorphine alone, 20 μg/10 μl ICV, BOLD fMRI, conscious rat)	change in BOLD signal intensity in the pituitary gland (time course following ICV administration of apomorphine (FIG. 3A))	change in BOLD signal intensity in the anterior thalamic nuclei (time course following ICV administration of apomorphine (FIG. 3B))	change in BOLD signal intensity in the dorsal striatum (time course following ICV administration of apomorphine (FIG. 3C))	neuronal/glial activity in the dorsal striatum (antipsychotic pre-treatment i.p. (chlorpromazine, clozapine, olanzapine 5 mg/kg), then apomorphine 20 μg/10 μl ICV, BOLD fMRI, conscious rat)	neuronal/glial activity in the anterior thalamic nuclei [2]	neuronal/glial activity in the pituitary gland [2]	neuronal/glial activity in the CA1 region of the hippocampus [3]	neuronal/glial activity in the CA3 region of the hippocampus [3]	neuronal/glial activity in the dentate gyms region of the hippocampus [3]	neuronal/glial activity in the subiculum region of the hippocampus [3]	neuronal/glial activity throughout the hippocampus [3]
CN1CCc2cccc3c2[C@H]1Cc1ccc(O)c(O)c1-3 [apomorphine]	activated	activated	activated	activated	increased	increased	increased								
CN(C)CCCN1c2ccccc2Sc2ccc(Cl)cc21 [chlorpromazine]								reduced	pronounced reduction	pronounced reduction	significant reduction in neuronal/glial activity	significant reduction in neuronal/glial activity	significant reduction in neuronal/glial activity	significant reduction in neuronal/glial activity	selective reduction in activity
O=C(CCCN1CCC(O)(c2ccc(Cl)cc2)CC1)c1ccc(F)cc1 [haloperidol]									reducing apomorphine-induced neuronal/glial activity	reducing apomorphine-induced neuronal/glial activity					
